Laboratory results reported in PubChem BioAssay AID2006 (Sanford-Burnham Center for Chemical Genomics, 2009).

Molecular target: SUMO-conjugating enzyme UBC9 (Homo sapiens) (UniProt P63279)
Test: blockers of SAE1/SAE2–UBC9 SUMO transfer – biochemical, HTRF, uHTS, primary screen (AID 2006)
Settings: HTRF SUMOylation assay, SAE1/SAE2 + UBC9, in vitro

Sequence of SUMO-conjugating enzyme UBC9 (Homo sapiens) (P63279 whole entry, looked up): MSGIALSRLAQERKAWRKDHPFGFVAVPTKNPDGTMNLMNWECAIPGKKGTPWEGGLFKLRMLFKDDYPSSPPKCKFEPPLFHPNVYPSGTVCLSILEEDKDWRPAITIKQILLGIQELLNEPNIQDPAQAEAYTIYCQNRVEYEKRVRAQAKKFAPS

| SMILES | IC50 [µM] |
| --- | --- |
| O=C(CN1C(=O)S/C(=C\c2ccccc2)C1=O)NNC(=O)c1ccccc1O | 37.9 |
| O=C1NC(=Nc2ccc3ccccc3c2)S/C1=C/c1ccco1 | 14 |
| O=C(O)c1ccc(/C=N/NC(=O)c2ccc(CN3c4cccc5cccc(c45)S3(=O)=O)cc2)cc1 | 11.1 |
| NS(=O)(=O)c1ccc(NC(=O)c2ccc(-c3ccccc3)cc2)cc1 | 13.8 |
